Data from patent EP0482594A1, “Tylosin derivative and method for preparing the same” (MERCIAN CORPORATION, priority 1990, dated 1992).
≈ marks a conversion by molar mass, not a printed value. Read-outs that look alike come from different tables or passages of the source.

Columns and labels:
mouse bone marrow cells = assay: Inhibition of the colony formation of mouse bone marrow cells; format: cell-based; conditions: for Number of colonies Average: 1.0 μg/ml (control average 75.3); for Number of colonies 1: count 1 (control 95); for Number of colonies 2: count 2 (control 66); for activity at 1 µg/mL: Mus musculus, Bone marrow cell
[1] = system: Bacillus subtilis ATCC 6633; assay: Antibacterial activity, agar-dilution method (Mueller Hinton agar); format: cell-based
Method: (§1) Antibacterial activity of the tylosin derivative of the present invention was determined by the agar- dilution method using a Mueller Hinton agar medium (Difco). The results obtained are summarized in Table 1 in which minimum inhibitory concentrations (MICs, ug/ml) are shown. Hereinafter in the specification, Compound A (the compound described in Example 3) is defined as being 4"-O-[(S)-(+)-p-methoxymandeloyl]tylosin represented by the following formula: [drawing 3] wherein R is the same as that defined above; Compound B (the compound described in Example 2) is defined as being 4"-O-[(R)-(-)-p-methoxymandeloyl]tylosin represented by the following formula: [drawing 4] wherein R is the same as that defined above; XV represents 4"-O-[p-methoxyphenylacetyl]tylosin; RKM represents rokitamycin; and EM represents erythromycin.

[2] = system: Staphylococcus epidermidis ATCC 12228; assay: as above; format: cell-based; conditions: for minimum inhibitory concentrations (MICs): Staphylococcus epidermidis ATCC 12228; for MIC: Staphylococcus epidermidis
Method: as §1

Escherichia coli K12 = assay: as above; format: cell-based; conditions: for MIC: read-out: minimum inhibitory concentrations (MICs)
Method: as §1

[3] = system: Staphylococcus aureus 209P; assay: as above; format: cell-based; conditions: for MIC: read-out: minimum inhibitory concentrations (MICs)
Method: as §1

[4] = system: Staphylococcus aureus Smith; assay: as above; format: cell-based; conditions: for MIC: read-out: minimum inhibitory concentrations (MICs)
Method: as §1

[5] = system: Mouse leukemia L1210 cells; assay: Inhibitory activity on the growth of L1210 cells; format: cell-based; conditions: for IC50: L1210 cell growth
Method: Mouse leukemia L1210 cells were cultured in RPM11640 medium (Gifco) containing 10% horse serum (Gifco) at 37°C under 5% carbon dioxide gas so that the leukemia cells were contained in the amount of 5 x 10^4 cells/ml, and the cells were subjected to passage culture every two or three days to maintain the cell density of 5 x 10^4 cells/ml. The diluted sample solution (0.1 ml) was added to each well of a 24-well plate which contained 0.9 ml of the cultured L1210 cells, and the mixture was incubated at 37 ° C for 48 hours under 5% carbon dioxide gas. The sample solution mentioned above was prepared by dissolving a weighed test compound in dimethyl sulfoxide (DMSO) at the concentration of 100 mg/ml and then diluting the solution with distilled water so that the concentration became 10 mg/ml. The resulting aqueous solution was diluted with phosphate buffer solution to obtain a sample solution at a desired concentration. After incubation, the cell numbers in each well were counted and inhibitory activity on cell growth (ICso) was calculated.

[6] = Stability test using mouse liver homogenate; format: in vitro ADME, ICR mouse; conditions: for Remaining unhydrolyzed substance (%): after being treated with liver homogenate for 60 minutes at 37 C
Method: A liver in collected from an ICR mouse was homogenized by a Potter homogenizer in five times volume of 0.1 M phosphate buffer solution (pH 7.2), and supernatant was obtained by centrifuging the homogenate at 3000 rpm for 10 minutes. To 2 ml of the supernatant obtained above, 2 ml of sample solution containing 500 µg/ml of test compound in 20% aqueous methanol and 1 ml of 0.1 M phosphate buffer solution were added, and the mixture was incubated at 37 ^0 c for 60 minutes and then 1 ml of the mixture was heated at 85 ° C for 3 minutes. The reaction mixture was adjusted to pH 9.0 by adding 1 N NaOH and extracted with 1 ml of ethyl acetate.

ML-resistant strain = assay: Antibacterial activity, agar-dilution method (Mueller Hinton agar); format: cell-based, Staphylococcus aureus; conditions: macrolide resistant strain; for MIC: Staphylococcus aureus, read-out: minimum inhibitory concentrations (MICs)
Method: as §1

[7] = 1.0 μg/ml, relative to control = 100
[8] = ATCC6633, Bacillus subtilis ATCC 6633, read-out: minimum inhibitory concentrations (MICs)
[9] = ATCC12228, Staphylococcus epidermidis ATCC 12228, read-out: minimum inhibitory concentrations (MICs)

| Compound | Number of colonies Average (mouse bone marrow cells) | Number of colonies 1 (mouse bone marrow cells; 1.0 μg/ml) | minimum inhibitory concentrations (MICs) ([1]; Bacillus subtilis ATCC 6633) [µg/mL] | minimum inhibitory concentrations (MICs) [2] [µg/mL] | minimum inhibitory concentrations (MICs) (Escherichia coli K12) [µg/mL] | minimum inhibitory concentrations (MICs) ([3]; Staphylococcus aureus 209P) [µg/mL] | minimum inhibitory concentrations (MICs) ([4]; Staphylococcus aureus Smith) [µg/mL] | Inhibitory activity on cell growth (%) ([5]; 1 μg/ml, 48 hours) | Inhibitory activity on cell growth (%) ([5]; 3 μg/ml, 48 hours) | Inhibitory activity on cell growth (%) ([5]; 10 μg/ml, 48 hours) | Inhibitory activity on cell growth (%) ([5]; 30 μg/ml, 48 hours) | Inhibitory activity on cell growth (%) ([5]; 100 μg/ml, 48 hours) | IC50 ([5]; 48 hours) [µg/mL] | minimum inhibitory concentrations (MICs) (ML-resistant strain; 1st listed (Table 1 r5)) [µg/mL] | minimum inhibitory concentrations (MICs) (ML-resistant strain; 5th listed (Table 1 r9)) [µg/mL] | MIC (Escherichia coli K12) [µg/mL] | MIC (ML-resistant strain; 1st listed (Table 1 r5)) [µg/mL] | MIC (ML-resistant strain; 2nd listed (Table 1 r6)) [µg/mL] | MIC (ML-resistant strain; 3rd listed (Table 1 r7)) [µg/mL] | MIC (ML-resistant strain; 4th listed (Table 1 r8)) [µg/mL] | also measured |
| --- | --- | --- | --- | --- | --- | --- | --- | --- | --- | --- | --- | --- | --- | --- | --- | --- | --- | --- | --- | --- | --- |
| 4"-O-[p-methoxyphenylacetyl]tylosin [XV] | 13.0 | 13 | 0.39 | 0.78 | > 100 | 0.20 | 1.56 | 12.22 | 31.18 | 82.87 | 90.45 | 93.68 | 5.01 | 6.25 | 1.56 |  |  |  |  |  | Colony formation (%) (mouse bone marrow cells; [7]): 17.3%; Remaining unhydrolyzed substance (%) [6]: 92.8%; minimum inhibitory concentrations (MICs) (ML-resistant strain; 2nd listed (Table 1 r6)): 0.78 µg/mL; minimum inhibitory concentrations (MICs) (ML-resistant strain; 3rd listed (Table 1 r7)): 3.13 µg/mL; minimum inhibitory concentrations (MICs) (ML-resistant strain; 4th listed (Table 1 r8)): 0.39 µg/mL |
| CCC1OC(=O)CC(O)C(C)C(OC2OC(C)C(OC3CC(C)(O)C(OC(=O)C(O)c4ccc(OC)cc4)C(C)O3)C(N(C)C)C2O)C(CC=O)CC(C)C(=O)C=CC(C)=CC1COC1OC(C)C(O)C(OC)C1OC [Compound A, 4"-O-[(S)-(+)-p-methoxymandeloyl]tylosin] | 31.0 | 32 |  |  |  |  |  |  |  | 5.62 |  |  |  |  | 6.25 (≈ 5.79 µM) | > 100 | 6.25 (≈ 5.79 µM) | 0.39 (≈ 0.361 µM) | 6.25 (≈ 5.79 µM) | < 0.2 | Number of colonies 2 (mouse bone marrow cells; 1.0 μg/ml): 30; activity at 1 µg/mL (mouse bone marrow cells; [7]): 41.2%; MIC [1, 8]: 0.39 µg/mL (≈ 0.361 µM); MIC [2, 9]: 0.39 µg/mL (≈ 0.361 µM); MIC ([3]; Staphylococcus aureus 209P): 0.39 µg/mL (≈ 0.361 µM); MIC ([4]; Staphylococcus aureus Smith): 1.56 µg/mL (≈ 1.44 µM); inhibition at 1 µg/mL ([5]; Mus musculus, L1210, 48 h, 1 μg/ml, read-out: Inhibitory activity on cell growth (%)): 0%; inhibition at 3 µg/mL ([5]; Mus musculus, L1210, 48 h, 3 μg/ml, read-out: Inhibitory activity on cell growth (%)): 0%; inhibition at 30 µg/mL ([5]; Mus musculus, L1210, 48 h, 30 μg/ml, read-out: Inhibitory activity on cell growth (%)): 47.8%; inhibition at 100 µg/mL ([5]; Mus musculus, L1210, 48 h, 100 μg/ml, read-out: Inhibitory activity on cell growth (%)): 88.8%; IC50 ([5]; Mus musculus, L1210, 48 h, read-out: IC50): 36.6 µg/mL (≈ 33.9 µM); remaining at 1 h ([6]; mouse, liver homogenate, pH 7.2, after being treated with liver homogenate for 60 minutes at 37 C, read-out: Remaining unhydrolyzed substance (%)): 97.8% |
| CCC1OC(=O)CC(O)C(C)C(OC2OC(C)C(OC3CC(C)(O)C(OC(=O)C(O)c4ccc(OC)cc4)C(C)O3)C(N(C)C)C2O)C(CC=O)CC(C)C(=O)C=CC(C)=CC1COC1OC(C)C(O)C(OC)C1OC [Compound B, 4"-O-[(R)-(-)-p-methoxymandeloyl]tylosin] | 29.5 | 34 | 0.39 (≈ 0.361 µM) | 0.78 (≈ 0.722 µM) | > 100 | 0.39 (≈ 0.361 µM) | 1.56 (≈ 1.44 µM) | 0 | 0 | 13.48 | 41.43 | 87.22 | 32.99 (≈ 30.5 µM) | 6.25 (≈ 5.79 µM) | 1.56 (≈ 1.44 µM) |  |  |  |  |  | Number of colonies 2 (mouse bone marrow cells; 1.0 μg/ml): 25; Remaining unhydrolyzed substance (%) ([6]; 60 min): 100%; minimum inhibitory concentrations (MICs) (ML-resistant strain; 2nd listed (Table 1 r6)): 0.39 µg/mL (≈ 0.361 µM); minimum inhibitory concentrations (MICs) (ML-resistant strain; 3rd listed (Table 1 r7)): 3.13 µg/mL (≈ 2.9 µM); minimum inhibitory concentrations (MICs) (ML-resistant strain; 4th listed (Table 1 r8)): < 0.20 µg/mL |
| CC[C@H]1OC(=O)[C@H](C)[C@@H](O[C@H]2C[C@@](C)(OC)[C@@H](O)[C@H](C)O2)[C@H](C)[C@@H](O[C@@H]2O[C@H](C)C[C@H](N(C)C)[C@H]2O)[C@](C)(O)C[C@@H](C)C(=O)[C@H](C)[C@@H](O)[C@]1(C)O [EM, erythromycin] |  |  |  |  |  |  |  |  |  |  |  |  |  |  |  | 50 (≈ 68.1 µM) | > 100 | > 100 | > 100 | > 100 | MIC ([1]; Bacillus subtilis, ATCC6633, read-out: minimum inhibitory concentrations (MICs)): 0.1 µg/mL (≈ 0.136 µM); MIC ([2]; ATCC12228, read-out: minimum inhibitory concentrations (MICs)): < 0.2 µg/mL; MIC ([3]; Staphylococcus aureus, 209P): 0.1 µg/mL (≈ 0.136 µM); MIC ([4]; Staphylococcus aureus): 0.2 µg/mL (≈ 0.273 µM); MIC (ML-resistant strain; 5th listed (Table 1 r9)): > 100 µg/mL |
| CCCC(=O)O[C@H]1[C@H](C)O[C@@H](O[C@H]2[C@H](N(C)C)[C@@H](O)[C@H](O[C@H]3[C@@H](CC=O)C[C@@H](C)[C@@H](O)/C=C/C=C/C[C@@H](C)OC(=O)C[C@@H](O)[C@@H]3OC)O[C@@H]2C)C[C@@]1(C)OC(=O)CC [RKM, rokitamycin] | 19.0 |  |  |  |  |  |  |  |  |  |  |  |  |  |  | 100 (≈ 121 µM) | > 100 | > 100 | > 100 | < 0.2 | Number of colonies 3 (mouse bone marrow cells; 1.0 μg/ml, count 3 (control 65)): 19; activity at 1 µg/mL (mouse bone marrow cells; [7]): 25.2%; MIC [1, 8]: 0.1 µg/mL (≈ 0.121 µM); MIC [2, 9]: < 0.2 µg/mL; MIC ([3]; Staphylococcus aureus 209P): 0.2 µg/mL (≈ 0.242 µM); MIC ([4]; Staphylococcus aureus Smith): 0.39 µg/mL (≈ 0.471 µM); MIC (ML-resistant strain; 5th listed (Table 1 r9)): > 100 µg/mL |
